How the values were obtained:
[1] = system: ICR female mice; conditions: mouse, oral, single dose of 1,000 mg/kg
Method: 12 seven-week-old, specific pathogen-free ICR female mice, six female mice each weighing about 25 to 29 g and six male mice each weighing about 34 to 38 g, were kept under an environment of 22±1°C, 55±5 % relative humidity and 12L/12D photoperiod. Fodder(Cheiljedang Co., mouse and rat fodder) and water were sterilized and fed to the mice.
Neohesperidin dihydrochalcone purchased from Aldrich-Sigma Chemical Co. (St. Louis, MO, U.S.A) was dissolved in 0.5 % Tween 80 to a concentration of 100 mg/ml, and the solution was orally administered to the mice in an amount of 0.2 ml per 20 g of mouse body weight. […] Further, on the 10th day, the mice were sacrificed and the internal organs were visually examined.

[2] = system: ACAT; test: ACAT assay on liver microsomes of the diet-fed rats; assay type: biochemical; conditions: ex vivo: liver microsomes of rats fed 1 % cholesterol plus 0.05 % neohesperidin dihydrochalcone for six weeks, versus Control group
Method: To determine the effect of feeding neohesperidin dihydrochalcone to rats on the activity of ACAT, microsomes were separated from liver tissues to be used as an enzyme source.
1 g each of the livers taken from each group of rats of Example 2 was homogenized in 5 ml of homogenization medium(0.1 M KH2PO4, pH 7.4, 0.1 mM EDTA and 10 mM β-mercaptoethanol). The homogenate was centrifuged at 3,000xg for 15 min. at 4°C and the supernatant thus obtained was centrifuged at 15,000xg for 15 min. at 4°C to obtain a supernatant. The supernatant was put into an ultracentrifuge tube(Beckman) and centrifuged at 100,000xg for 1 hour at 4°C to obtain microsomal pellets, which were then suspended in 3 ml of the homogenization medium and centrifuged at 100,000xg for 1 hour at 4°C. The pellets thus obtained were suspended in 1 ml of the homogenization medium. The protein concentration of the resulting suspension was determined by Lowry's method and then adjusted to 4 to 8 mg/ml. […]
200 µl of the resulting supernatant was put in a scintillation bottle and 4 ml of scintillation fluid(Lumac) was added thereto. The mixture was assayed for radioactivity with 1450 Microbeta liquid scintillation counter(Wallacoy, Finland). ACAT activity was calculated as picomoles of cholesteryl oleate synthesized per min. per mg protein(pmoles/min/mg protein).

[3] = system: New Zealand White rabbits; test: Microscopic grading of abnormal fat-containing cells in the liver of cholesterol-fed rabbits (fatty liver); assay type: in vivo; conditions: 1 % cholesterol diet for 6 weeks plus 1 mg/kg Lovastatin or 0.05 % neohesperidin dihydrochalcone
Method: 30 three-month-old New Zealand White rabbits(Yeonam Horticulture and Animal Husbandry College, Korea), each weighing about 2.5 to 2.6 kg, were raised under a condition of temperature 20±2°C, relative humidity 55±5 %, and photoperiod 12L/12D. The rabbits were divided into 3 groups and 3 groups of rabbits were fed with 3 different diets, i.e., RC4 diet(Oriental Yeast Co., Japan) containing 1 % cholesterol(Control group); 1 % cholesterol plus 1 mg/kg Lovastatin®(Merck, U.S.A.)(Lovastatin group); and 1 % cholesterol plus 0.05 % neohesperidin dihydrochalcone(Neohesperidin dihydrochalcone group), respectively. RC4 diet comprises 7.6 % moisture, 22.8 % crude protein, 2.8 % crude fat, 8.8 % crude ash, 14.4 % crude cellulose and 43.6 % soluble nitrogen-free substances. Neohesperidin dihydrochalcone was purchased from Sigma Chemical Co.(St. Louis, MO).
The rabbits were fed for 6 weeks while being allowed free access to the diets and water.
In order to evaluate the effects of feeding a high cholesterol diet with neohesperidin dihydrochalcone on liver tissues, the liver specimens taken from the sacrificed rabbit in Step 2 of Example 6 were treated in accordance with the procedure disclosed in Fogt F. and Nanji A., Toxicology and Applied Pharmacology, 136, 87-93, 1996; and Keegan A., et al., Journal of Hepatology 23: 591-600, 1995, and observed under a microscope to be classified into four grades, i.e., 1+(0-25%), 2+(26-50%), 3+(51-75), 4+(76-100%) based on the proportion of abnormal fat-containing cells around the central vein in the liver acinus.
Figs. 2A, 2B and 2C present the microscopic features of the livers of the rabbits administered with 1% cholesterol; 1% cholesterol plus 1 mg/kg Lovastatin®; 1% and cholesterol plus 0.05% neohesperidin dihydrochalcone, respectively.

Question: `COc1ccc(CCC(=O)c2c(O)cc(O[C@@H]3O[C@H](CO)[C@@H](O)[C@H](O)[C@H]3O[C@@H]3O[C@@H](C)[C@H](O)[C@@H](O)[C@H]3O)cc2O)cc1O` [Neohesperidin dihydrochalcone] was tested. Which “survival at day 10” value [1] did it give?
Answer: Its value is “All the mice were alive”.

Question: And the “pathological abnormality at autopsy” value ([1]; autopsy on the 10th day)?
Answer: The value was “did not develop any pathological abnormality”.

Question: What about the “%Inhibition on ACAT activity” value [2] of the same molecule?
Answer: The value was 20%.

Question: What about the “B: Proportion of abnormal fat-containing cells” value ([3]; rabbit liver, cells around the central vein, mean of grades 1+ to 4+) of the same molecule?
Answer: The value was 2.7 (±0.3).

Question: And the “microscopic features of the liver (Figs. 2B, 2C)” value ([3]; rabbits)?
Answer: The value was “almost all liver cells are of a normal shape”.

— EP1113726B1, “USE OF NEOHESPERIDIN DIHYDROCHALCONE FOR THE MANUFACTURE OF A MEDICAMENT FOR PREVENTING OR TREATING ELEVATED BLOOD LIPID LEVEL-RELATED DISEASES” (Korea Research Institute of Bioscience and Biotechnology, priority 1998, dated 2000)
